# Data taken from publication PMC6562543 (Marine Drugs, 2019).
# Assays:
# [1] = in vivo; cited from earlier work
# mice [2] = details: mouse, in vivo; SEM
# mice [3] = test system: mice; set-up: species or system Kunming mice; details: mouse, in vivo, iv
# mice [4] = test system: mice; set-up: species or system Kunming mice (ICR mice for intranasal treatment); details: mouse, in vivo
# [5] = rat, in vivo, cited from earlier work
compound,measurement,setting,value
"CSCC[C@@H]1NC(=O)[C@H](CC(C)C)NC(=O)[C@H](CCCNC(=N)N)NC(=O)[C@H](CO)NC(=O)[C@@H]2CSSC[C@@H]3NC(=O)[C@H](CO)NC(=O)CNC(=O)[C@H]([C@@H](C)O)NC(=O)[C@H](CSSC[C@H](N)C(=O)N[C@@H](CCCCN)C(=O)NCC(=O)N[C@@H](CCCCN)C(=O)NCC(=O)N[C@@H](C)C(=O)N[C@@H](CCCCN)C(=O)N2)NC(=O)[C@H](CSSC[C@@H](C(N)=O)NC(=O)[C@H](CCCCN)NC(=O)CNC(=O)[C@H](CO)NC(=O)[C@H](CCCNC(=N)N)NC3=O)NC(=O)[C@H](CC(=O)O)NC(=O)[C@H](Cc2ccc(O)cc2)NC1=O [MVIIA, ω-Conotoxin MVIIA]",antinociceptive potency relative to intrathecal morphine,[1],100 times
same,potency relative to morphine,[1],100 times
same,stay time on rotarod,mice [2],74.5 ± 20.28 s
same,effect on writhing numbers,mice [3],failed to attenuate writhing numbers
same,time after which the effect disappeared,mice [4],≤ 4 h
same,time of maximal antinociceptive effect,mice [4],1 h
same,antinociceptive effect,mice [4]; iv,no effect
same,AUC0-6 in CSF,[5]; iv,4.98 ± 0.97 µg·min/mL
same,Cmax in CSF,[5]; iv,37.78 ± 6.8 ng/mL
same,Tmax in CSF,[5]; iv,~ 2 h
same,bioavailability in CSF following intranasal versus intravenous administration,[5],two fold greater
